Test results as given in PubChem BioAssay (NCI).
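96-well plates; 48 h exposure; 5 concentrations. Endpoints by linear interpolation between flanking doses. Not reached: highest tested concentration assigned. Definition used: TGI = concentration required for complete inhibition of growth.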

What was measured:
Experiment in all cases: NCI anticancer screen, dose series, 48 h
[1] = tested on: COLO 205 colon
[2] = tested on: HCC-2998 colon
[3] = tested on: SF-268 CNS
[4] = tested on: SNB-78 CNS
[5] = tested on: K-562 leukemia
[6] = tested on: UACC-62 melanoma
[7] = tested on: 786-0 renal
[8] = tested on: OVCAR-3 ovarian
[9] = tested on: SR leukemia
[10] = tested on: ACHN renal
[11] = tested on: SN12C renal
[12] = tested on: SK-MEL-28 melanoma
[13] = tested on: OVCAR-8 ovarian
[14] = tested on: OVCAR-5 ovarian
[15] = tested on: HOP-62 NSCLC
[16] = tested on: RXF 393 renal
[17] = tested on: UACC-257 melanoma
[18] = tested on: SK-OV-3 ovarian
[19] = tested on: RPMI-8226 leukemia
[20] = tested on: MALME-3M melanoma
[21] = tested on: CCRF-CEM leukemia
[22] = tested on: DMS 114 small cell lung
[23] = tested on: CAKI-1 renal
[24] = tested on: SNB-75 CNS
[25] = tested on: SW-620 colon
[26] = tested on: SK-MEL-2 melanoma
[27] = tested on: HOP-18 NSCLC
[28] = tested on: SK-MEL-5 melanoma
[29] = tested on: M19-MEL melanoma
[30] = tested on: EKVX NSCLC
[31] = tested on: OVCAR-4 ovarian
[32] = tested on: NCI-H23 lung
[33] = tested on: LOX IMVI melanoma
[34] = tested on: MOLT-4 leukemia
[35] = tested on: KM12 colon
[36] = tested on: HT29 colon
[37] = tested on: KM20L2 colon
[38] = tested on: SF-295 CNS
[39] = tested on: NCI-H226 lung
[40] = tested on: UO-31 renal
[41] = tested on: SF-539 CNS
[42] = tested on: DLD-1 colon
[43] = tested on: HL-60(TB) leukemia
[44] = tested on: LXFL 529 NSCLC
[45] = tested on: M14 melanoma
[46] = tested on: RXF-631 renal
[47] = tested on: U251 CNS
[48] = tested on: IGROV1 ovarian
[49] = tested on: NCI-H522 lung
[50] = tested on: XF 498 CNS
[51] = tested on: A549 NSCLC
[52] = tested on: SNB-19 CNS
[53] = tested on: NCI-H460 lung
[54] = tested on: HCT-15 colon
[55] = tested on: DMS 273 small cell lung
[56] = tested on: A498 renal
[57] = tested on: PC-3 prostate
[58] = tested on: MDA-N
[59] = tested on: DU-145 prostate
[60] = tested on: HS 578T breast
[61] = tested on: NCI/ADR-RES ovarian
[62] = tested on: TK-10 renal
[63] = tested on: MDA-MB-231 breast
[64] = tested on: BT-549 breast
[65] = tested on: T-47D breast
[66] = tested on: HOP-92 NSCLC
[67] = tested on: MDA-MB-435
[68] = tested on: MCF7 breast
[69] = tested on: HCT-116 colon

With `COc1ccc(C2ON(c3cccc(C)n3)CC=C2C)cc1` (configuration not stated) the TGI [1] was greater than 100 µM, the TGI [2] was greater than 100 µM and the TGI [3] was greater than 100 µM. It also gave a TGI [4] greater than 100 µM, a TGI [5] greater than 100 µM and a TGI [6] greater than 100 µM. For the same molecule, the TGI [7] was greater than 100 µM, the TGI [8] was greater than 100 µM and the TGI [9] was 99.2 µM. The TGI [10] was greater than 100 µM, the TGI [11] was greater than 100 µM and the TGI [12] was 71.3 µM. The TGI [13] was greater than 100 µM, the TGI [14] was greater than 100 µM and the TGI [15] was greater than 100 µM. It also gave a TGI [16] of 96.5 µM, a TGI [17] greater than 100 µM and a TGI [18] greater than 100 µM. The TGI [19] was greater than 100 µM, the TGI [20] was greater than 100 µM and the TGI [21] was greater than 100 µM. The TGI [22] was greater than 100 µM, the TGI [23] was greater than 100 µM and the TGI [24] was greater than 100 µM. For the same molecule, the TGI [25] was greater than 100 µM, the TGI [26] was 69.4 µM and the TGI [27] was greater than 100 µM. The TGI [28] was 33.3 µM, the TGI [29] was greater than 100 µM and the TGI [30] was greater than 100 µM. For the same molecule, the TGI [31] was greater than 100 µM, the TGI [32] was greater than 100 µM and the TGI [33] was greater than 100 µM. For the same molecule, the TGI [34] was greater than 100 µM, the TGI [35] was greater than 100 µM and the TGI [36] was greater than 100 µM. The TGI [37] was greater than 100 µM, the TGI [38] was greater than 100 µM and the TGI [39] was greater than 100 µM. The TGI [40] was greater than 100 µM, the TGI [41] was greater than 100 µM and the TGI [42] was greater than 100 µM. It also gave a TGI [43] of 43.7 µM, a TGI [44] greater than 100 µM and a TGI [45] greater than 100 µM. It also gave a TGI [46] greater than 100 µM, a TGI [47] greater than 100 µM and a TGI [48] greater than 100 µM. For the same molecule, the TGI [49] was 54.8 µM, the TGI [50] was greater than 100 µM and the TGI [51] was greater than 100 µM. It also gave a TGI [52] greater than 100 µM, a TGI [53] greater than 100 µM and a TGI [54] greater than 100 µM. The TGI [55] was greater than 100 µM.
In the case of `CC(C)CC(NC(=O)OC(C)(C)C)C(=O)Nc1ccc(Nc2nc(F)nc(-c3c4ccccc4cn3C)n2)cc1` (configuration not stated), the TGI [1] is reported as 49.3 µM, the TGI [2] is reported as 40.2 µM and the TGI [56] is reported as greater than 100 µM. For the same molecule, the TGI [57] was greater than 100 µM, the TGI [3] was greater than 100 µM and the TGI [4] was greater than 68 µM. The TGI [5] was greater than 100 µM, the TGI [6] was greater than 100 µM and the TGI [7] was greater than 100 µM. For the same molecule, the TGI [8] was 63 µM, the TGI [9] was greater than 74.1 µM and the TGI [10] was greater than 100 µM. For the same molecule, the TGI [11] was greater than 100 µM, the TGI [12] was greater than 100 µM and the TGI [13] was greater than 100 µM. The TGI [58] was greater than 100 µM, the TGI [14] was greater than 100 µM and the TGI [15] was 42.6 µM. It also gave a TGI [16] greater than 87.1 µM, a TGI [17] greater than 100 µM and a TGI [18] greater than 100 µM. It also gave a TGI [19] of 22.4 µM, a TGI [20] greater than 100 µM and a TGI [21] greater than 100 µM. For the same molecule, the TGI [22] was greater than 72.4 µM, the TGI [23] was greater than 100 µM and the TGI [59] was 39.7 µM. It also gave a TGI [24] greater than 100 µM, a TGI [25] greater than 54.4 µM and a TGI [26] greater than 100 µM. The TGI [60] was greater than 100 µM, the TGI [27] was greater than 100 µM and the TGI [28] was greater than 100 µM. It also gave a TGI [61] greater than 100 µM, a TGI [29] greater than 100 µM and a TGI [30] greater than 81.1 µM. It also gave a TGI [31] greater than 100 µM, a TGI [32] greater than 100 µM and a TGI [33] greater than 100 µM. For the same molecule, the TGI [34] was greater than 100 µM, the TGI [35] was 42.3 µM and the TGI [36] was 54.9 µM. The TGI [62] was greater than 100 µM, the TGI [37] was greater than 100 µM and the TGI [38] was greater than 100 µM. For the same molecule, the TGI [39] was greater than 100 µM, the TGI [40] was greater than 100 µM and the TGI [63] was greater than 100 µM. The TGI [41] was greater than 100 µM, the TGI [42] was greater than 58 µM and the TGI [43] was 33 µM. The TGI [44] was greater than 100 µM, the TGI [64] was greater than 100 µM and the TGI [65] was greater than 100 µM. It also gave a TGI [45] greater than 100 µM, a TGI [66] greater than 100 µM and a TGI [47] greater than 46.4 µM. For the same molecule, the TGI [67] was greater than 100 µM, the TGI [68] was 31.4 µM and the TGI [48] was greater than 100 µM. For the same molecule, the TGI [49] was greater than 100 µM, the TGI [69] was greater than 100 µM and the TGI [50] was greater than 100 µM. The TGI [51] was greater than 100 µM, the TGI [52] was greater than 100 µM and the TGI [53] was greater than 100 µM. It also gave a TGI [54] greater than 100 µM and a TGI [55] greater than 100 µM.
`CN(C)c1ccc(/C=c2\sc3nc4ccccc4n3c2=O)cc1` was tested, and the TGI [1] was greater than 100 µM, the TGI [2] was greater than 100 µM and the TGI [56] was greater than 100 µM. The TGI [3] was greater than 100 µM, the TGI [4] was greater than 100 µM and the TGI [5] was greater than 100 µM. The TGI [6] was greater than 100 µM, the TGI [7] was greater than 100 µM and the TGI [8] was greater than 100 µM. The TGI [10] was greater than 100 µM, the TGI [11] was greater than 100 µM and the TGI [12] was greater than 100 µM. For the same molecule, the TGI [13] was greater than 100 µM, the TGI [14] was greater than 100 µM and the TGI [15] was greater than 100 µM. The TGI [16] was greater than 100 µM, the TGI [17] was greater than 100 µM and the TGI [20] was greater than 100 µM. The TGI [22] was greater than 100 µM, the TGI [23] was greater than 100 µM and the TGI [24] was greater than 100 µM. It also gave a TGI [25] greater than 100 µM, a TGI [26] greater than 100 µM and a TGI [27] greater than 100 µM. The TGI [28] was greater than 100 µM, the TGI [29] was greater than 100 µM and the TGI [30] was greater than 100 µM. The TGI [31] was greater than 100 µM, the TGI [32] was greater than 100 µM and the TGI [33] was greater than 100 µM. The TGI [35] was greater than 100 µM, the TGI [36] was greater than 100 µM and the TGI [62] was greater than 100 µM. For the same molecule, the TGI [37] was greater than 100 µM, the TGI [38] was greater than 100 µM and the TGI [39] was greater than 100 µM. The TGI [40] was greater than 100 µM, the TGI [41] was greater than 100 µM and the TGI [42] was greater than 100 µM. It also gave a TGI [43] greater than 100 µM, a TGI [44] greater than 100 µM and a TGI [45] greater than 100 µM. For the same molecule, the TGI [66] was greater than 100 µM, the TGI [46] was greater than 100 µM and the TGI [47] was greater than 100 µM. For the same molecule, the TGI [48] was greater than 100 µM, the TGI [49] was greater than 100 µM and the TGI [69] was greater than 100 µM. The TGI [50] was greater than 100 µM, the TGI [51] was greater than 100 µM and the TGI [52] was greater than 100 µM. For the same molecule, the TGI [53] was greater than 100 µM, the TGI [54] was greater than 100 µM and the TGI [55] was greater than 100 µM.
